The record followed here is patent publication US9289505B2, “Compositions and methods for delivering nucleic acid molecules and treating cancer” (Rutgers, The State University of New Jersey, priority 2010, dated 2016).

One data set has as its system BCL2 mRNA. Kind of data set: BCL2 gene silencing by siRNA-dendrimer complexes, RT-PCR. The format is cell-based, human. Conditions: A549 cells, 24 hours incubation. The procedure:
Quantitative reverse transcription-polymerase chain reaction (RT-PCR) was used for the analysis of expression of genes encoding BCL2 protein and β2-microglobulin (internal standard) as previously described (Pakunlu et al. (2003) Pharm. Res., 20:351-359). RNA was isolated after 24 hours incubation of cancer cells with siRNA-dendrimer complexes, using an RNeasy kit (Qiagen, Valencia, Calif.). First strand complementary DNA (cDNA) was synthesized by Ready-To-Go You-Prime First-Strand Beads (Amersham Biosciences, Piscataway, N.J.) with […] of total cellular RNA and 100 ng of random hexadeoxynucleotide primer (Amersham Bioscience, Piscataway, N.J.). After synthesis, the reaction mixture was immediately subjected to PCR, which was carried out using GenAmp® PCR System 2400 (Perkin-Elmer, Shelton, Conn.). The following pairs of primers were used: BCL2-GGATTGTGGCCTTCTTTGAG (sense; SEQ ID NO: 6), CCAAACTGAGCAGAGTCTTC (antisense; SEQ ID NO: 7); β2-microglobulin (β2-m)-ACCCCCACTGAAAAAGATGA (sense; SEQ ID NO: 8), ATCTTCAAACCTCCATGATG (antisense; SEQ ID NO: 9). […] Gene expression was calculated as the ratio of mean band intensity of analyzed RT-PCR product (BCL2) to that of the internal standard (β2-m). […]

A short description of data set [1]: Serum stability of siRNA and PAMAM-PEG-PLL-siRNA complex. The format is in vitro ADME. The conditions noted are these: 50% human serum, 37° C. The method, then: Serum stabilities of naked siRNA and siRNA complexed with PAMAM-PEG-PLL nanocarrier were investigated by incubating siRNA or PAMAM-PEG-PLL-siRNA complex in 50% human serum at 37° C. Ten samples were prepared by mixing siRNA (30 nmol) in water with PAMAM-PEG-PLL (74.8 nmol, N/P=3) solution in water and separately incubated for 30 minutes at room temperature. In the case of naked siRNA, equal volume of RNAase free water was used instead of nanocarrier. To each of these samples 50% human plasma was added (final siRNA concentration was 1.43 nM) and incubated at 37° C. Samples were removed at an indicated time intervals (0, 0.25, 0.5, 0.75, 1, 3, 6, 12, 24 and 50 hours) and analyzed using a gel electrophoresis (4% agarose gel at 100 V for 50 minutes) in Tris-Borate-EDTA buffer containing EtBr. siRNA bands on the gel were visualized under ultraviolet light. PAMAM-PEG-PLL-siRNA samples were pre-treated with polymethacrylic acid to release free siRNA from cationic nanocarriers. 100 μL of polymethacrylic acid solution (4 μM) was added to the complexes (triblock nanocarrier/siRNA=3) and incubated at 37° C. with 50% human plasma. The released siRNA was then analyzed by a gel electrophoresis.

The test system of data set [2] is subcutaneous tumor xenografts of human A549 cancer cells. The experiment in a line: Antitumor activity in subcutaneous A549 xenografts. The conditions noted are these: intratumoral 3 times within 10 days.
Procedure: NCR nude mice (female, 6 weeks, 20 g) were purchased from Taconic Farms, Inc. (Germantown, N.Y.). […] Briefly, A549 human cancer cells transfected with luciferase (5×10^6) were subcutaneously transplanted into the flanks of female athymic nu/nu mice. According to the approved institutional animal use protocol, the tumors were measured by a caliper every other day and their volumes were calculated as d^2×D/2 where d and D are the shortest and longest diameter of the tumor in mm, respectively. When the tumor reached a mean size of 50 mm^3, mice were divided into seven groups and injected intratumorally 3 times within 10 days with 150 μL of the following formulations: (1) saline (control); (2) free non-bound LHRH; (3) free non-bound siRNA; (4) free non-bound CIS; (5) Mixture of CIS and SPIO-PPI G5; (6) Mixture of CIS and SPIO-PPI G5-siRNA; and (7) Mixture of CIS and SPIO-PPI G5-siRNA-PEG-LHRH complexes. The concentrations of CIS and siRNA in the formulations were 2.5 mg/kg and 30 μM, respectively. Changes in tumor size were monitored by real-time bioluminescence in anesthetized animals by IVIS imaging system (Xenogen Bioscience, Cranbury, N.J.).
In data set [3] the test system is A2780 human ovarian cancer cells. Kind of data set: Cellular uptake of fluorophore labeled siRNA, confocal microscopy. Conditions: living cells. The format is cell-based. The method, then: Cellular uptake and intracellular localization of siRNA was investigated using a confocal microscopy. In this experiment, living cancer cells were incubated with fluorophore labeled naked siRNA (siGLO® Red, red fluorescence) and siRNA complexed with cationic nanocarrier PAMAM-PEG-PLL (N/P=3). Cellular uptake studied substances was monitored in living cells placed in a chamber at 37° C. within 1 hour. Cellular localization of siRNA was examined on fixed and washed cells after the incubation for 24 hours with the substances. Fluorescence and its distribution within the cell were examined using a confocal microscope.

A further data set relates to BCL2 gene. Kind of data set: BCL2 gene expression, RT-PCR. The format is cell-based, human. Conditions: A2780 cells, BCL2 siRNA 1 μM delivered by the named carrier, 24 hours. The procedure: Reverse transcription-polymerase chain reaction (RT-PCR) was used for the analysis of gene expression (Pakunlu et al. (2004) Cancer Res., 64:6214-6224). […] After 24 hours, total cellular RNA was isolated using an RNeasy kit (Qiagen, Valencia, Calif.). […] After synthesis, the reaction mixture was immediately subjected to polymerase chain reaction (PCR), which was carried out using […] System 2400 (Perkin-Elmer, Shelton, Conn.). β2-microglobulin (β2-m) was used as an internal standard. The following pairs of primers were used: BCL2: [NT] (sense; SEQ ID NO: 6), [NT] (antisense; SEQ ID NO: 7); β2-m (internal […] (sense; SEQ ID NO: 8), [NT] (antisense; SEQ ID NO: 9). PCR regimen was as follows: 94° C. for 5 minutes; 94° C. for 1 minute, 55° C. for 1 minute, and 72° C. for 1 minute for 41 cycles; and 60° C. for 10 minutes. PCR products were separated in 4% NuSieve 3:1 Reliant-agarose gels (Lonza, Basel, Switzerland) in 1× Tris-borate EDTA buffer [0.089 mol/L Tris-borate, 0.002 mol/L EDTA (pH 8.3); Research Organics Inc., Cleveland, Ohio] by submarine electrophoresis. The gels were stained with EtBr and digitally photographed.

Data set [4] has as its system A549 human lung cancer cells. The experiment in a line: Cellular internalization of FAM-labelled siRNA. The format is cell-based. Conditions: 24 hours, siRNA 0.25 μM, fluorescence microscopy. The method, then: Prior to the visualization, A549 cells were plated (20,000 cells per well) in a 6-well tissue culture plate. The cells were treated within 24 hours with the siRNA complex prepared with different generations of PPI dendrimer. The treatment of the A549 cells was performed in such a manner that the final concentration of siRNA was 0.25 μM and the concentrations of PPI G2, G3, G4, and G5 dendrimers were 3.15 μM, 1.58 μM, 0.79 μM, and 0.39 μM, respectively. After 24 hours of treatment, the cells were washed three times with Phosphate Buffered Saline (PBS) and 1 mL of media was added to each well. Cellular internalization of siRNA-dendrimer complexes were analyzed by fluorescent (Olympus America Inc., Melville, N.Y.) and confocal (Leica Microsystems Inc., Bannockburn, Ill.) microscopes. To obtain intracellular distribution of siRNA, ten optical sections, known as a z-series, were photographed sequentially, by confocal microscope, along the vertical (z) axis from the top to the bottom of the cell. The obtained fluorescent images were digitally scanned and fluorescence inside cells (reflecting intracellular accumulation of labelled siRNA) was expressed in arbitrary units.

d = 2'-deoxy (DNA); r = 2'-OH (RNA)

Take “5′-GUGAAGUCAACAUGCCUGC-dTdT-3′ (sense strand; SEQ ID NO: 4) and 5′-GCAGGCAUGUUGACUUCAC-dTdT-3′ (antisense strand; SEQ ID NO: 5) (sense GUGAAGUCAACAUGCCUGCTT; antisense GCAGGCAUGUUGACUUCACTT; sugars from the 5' end r19 d2, backbone not given here) [naked siRNA, siRNA targeted to BCL2 mRNA without carrier; fluorophore labelled siRNA used in uptake tests]”: the BCL2 gene knockdown result with BCL2 mRNA is recorded as “Gene silencing was not observed”. In addition, the “incubation time after which siRNA started to degrade” value in data set [1] was found to be 1 h. Moreover, the “tumor growth / antitumor activity” value in data set [2] is given as “did not significantly influence the growth of the tumor”. Further, the “cellular uptake of siRNA” value in data set [3] is given as “did not penetrate the cancer cells”. Also, the “expression of targeted BCL2 gene, from control value” in the data set on BCL2 gene is “did not influenced”. Besides, the siRNA cellular internalization result in data set [4] was “not internalized by the cells”.
